As a reminder, the EC50 is the midpoint of the concentration-response curve.

For two compounds, half-life and EC50 results are on record in patent publication US20240199676A1, “ANTIVIRAL COMPOUNDS AND METHODS OF MAKING AND USING THE SAME” (Gilead Sciences, Inc., priority 2022, published 2024).

Data set [1] can be described thus: GI S9 stability (Ex. Z), rat intestinal S9. It counts as in vitro ADME. The note with it: pooled intestinal S9 fractions; rat intestinal S9, 1.0 mg/mL protein, 2 μM substrate, pH 7.4; read-out: GIS9 Rat T½ (per Ex. Z). The protocol: (§1) Example Z: GI S9 stability data:
(§2) Stock solutions of test compounds in dimethyl sulfoxide (DMSO) having a final concentration of 10 mM were prepared and used in all experiments. Sekisui XenoTech (Kansas City, KS) provided pooled intestinal S9 fractions. All other chemicals were purchased from Sigma-Aldrich (St. Louis, MO) or VWR (West Chester, PA). Internal Standard/Quench (IS/Q) used to stop reactions was 100 nM labetalol in (by volume) methanol (10%) and acetonitrile (90%).
(§3) Stability in Intestinal S9 Fractions: Duplicate aliquots of test compound or positive control substrate were added to S9 stock diluted with phosphate buffered saline (137 mM NaCl, 2.7 mM KCl, 10 mM phosphate buffer), pH 7.4, to obtain a protein concentration of 1.0 mg/mL. The metabolic reactions were initiated by the addition of the substrates to the S9 reaction mixture to a final concentration of 2 μM. At 0, 10, 20, 30, 60 and 120 min, 25 μL aliquots of the reaction mixture were transferred to plates containing 225 μl of IS/Q solution. After quenching, the plates were centrifuged at 3000×g for 30 minutes. 150 μL aliquots of each supernatant were dried down then reconstituted with 300 μL water. Aliquots (10 μL) of the prepared samples were analyzed on a Thermo Q-Exactive mass spectrometer as described below.
(§4) Liquid Chromatography—Mass Spectrometry: Quantification of test compounds and control substrate was performed by analyte/internal standard peak area ratio (PAR) values measured on a Thermo Q-Exactive mass spectrometer coupled to a Dionex UltiMate 3000 HPLC with a Leap Technologies HTC PAL autosampler. The column used for analysis was a Waters Acquity BEH C18 (1.7 μm particle size, 2.1×50 mm). Mobile phase A consisted of 0.1% (v/v) formic acid in water. Mobile phase B consisted of 0.1% (v/v) formic acid in acetonitrile. Elution of analytes was achieved by a series of linear gradients varying the proportions of A and B. The mass spectrometer was calibrated on a weekly basis and mass tolerance of 5 ppm was used.
(§5) Metabolic stabilities in S9 fractions were determined by measuring the rates of disappearance of test compound and positive control substrate.
(§6) Data (% of substrate remaining) were plotted on a semi-log scale and fitted using an exponential decline model:
(§7) Where Ct—% of substrate remaining at time=t; C0—% of substrate remaining at time=0; t—time; T½—half-life The Half-life (T½) is determined by the following equation: […]
(§8) Assuming a first-order reaction, the slope (k) is extrapolated from the aforementioned plotted data.

Data set [2] can be described thus: GI S9 stability (Ex. Z), dog intestinal S9. The note with it: pooled intestinal S9 fractions; dog intestinal S9, 1.0 mg/mL protein, 2 μM substrate, pH 7.4; read-out: GIS9 DOG T½ (per Ex. Z). Type of data set: in vitro ADME. The protocol: as §1, §2, §3, §4, §5, §6, §7, §8
Data set [3] can be described thus: GI S9 stability (Ex. Z), cyno intestinal S9. Type of data set: in vitro ADME. The note with it: cynomolgus monkey, pooled intestinal S9 fractions; cyno intestinal S9, 1.0 mg/mL protein, 2 μM substrate, pH 7.4; read-out: GIS9 Cyno T½ (per Ex. Z). The protocol: as §1, §2, §3, §4, §5, §6, §7, §8
In data set [4] the test system is Respiratory syncytial virus recombinant with luciferase (RSV-Luc5) in NHBE cells. In words: NHBE RSV-Luc5 384-well Assay (RSV FLUC NHBE 384 V2, Ex. W). It counts as cell-based. The note with it: human respiratory syncytial virus, 72 h, read-out: EC50 RSV FLUC NHBE 384 V2 (per Ex. W). From the text:
Example W: NHBE RSV-Luc5 384-well Assay (EC50 RSVFLUC NHBE-384)
Normal Human Bronchial Epithelial (NHBE) cells were purchased from Lonza (Walkersville, MD Cat #CC2540) and maintained in BEGM Bronchial Epithelial Cell Growth Medium BulletKit (Lonza CC-3170).
Cells were thawed, expanded, and were used for experiments at passage 2. Respiratory syncytial virus recombinant with luciferase (RSV-Luc5) (≥1×10^7 Infectious Units/mL (IU/mL) determined by TCID50) was purchased from Microbiologics (Saint Cloud, MN). Viral replication was determined in NHBE cells in the following manner.
(§9) Compounds are prepared in 100% DMSO in 384-well polypropylene plates (Greiner, Monroe, NC, Cat #784201) with 8 compounds per plate in grouped replicates of 4 at 10 serially diluted concentrations (1:3). The serially diluted compounds were transferred to low dead volume Echo plates (Labcyte, Sunnyvale, CA, Cat #LP-0200).
The test compounds were spotted to 384-well assay plates (Greiner, Monroe, NC, Cat#781091) at 200 nL per well using an Echo acoustic dispenser (Labcyte, Sunnyvale, CA). NHBE cells were harvested and suspended in BEGM Bronchial Epithelial Cell Growth Medium BulletKit and seeded to the pre-spotted assay plates at 5,000 cells per well in 30 μL. RSV-Luc5 virus was diluted in BEGM Bronchial Epithelial Cell Growth Medium BulletKit at 500,000 Infectious Units (IU) per mL and 10 μL per well was added to the assay plates containing cells and compounds, for an MOI of 1. The assay plates were incubated for 3 days at 37° C. and 5% CO2. At the end of incubation, One-Glo reagent (Promega, Madison, WI, Cat #E6120) was prepared. The assay plates and One-Glo reagent were equilibrated to room temperature for at least 15 minutes. 40 μL per well of One-Glo reagent was added and the plates were incubated at room temperature for 15 minutes before reading the luminescence signal on an EnVision multimode plate reader (Perkin Elmer, Waltham, MA). Remdesivir was used as positive control and DMSO was used as negative control. Values were normalized to the positive and negative controls (as 0% and 100% replication, respectively) and data was fitted using non-linear regression analysis by Gilead's dose response tool. The EC50 value for each compound was defined as the concentration reducing the viral replication by 50%.

Data set [5] concerns Respiratory syncytial virus recombinant with luciferase (RSV-Luc5) in HEp-2 cells. The experiment in a line: HEp-2 RSV-Luc5 384-well Assay (EC50 RSVFLUC Hep2-384 v2, Ex. V). Type of data set: cell-based. The note with it: human respiratory syncytial virus, HEp-2, 72 h, read-out: EC50 RSV FLuc Hep-2 384 V2 (per Ex. V).
From the text: Example V: HEp-2 RSV-Luc5 384-well Assay (EC50 RSVFLUC Hep2-384 v2)
HEp-2 cell line was purchased from ATCC (Manassas, VA Cat #CCL-23) and maintained in Dulbecco's […] (DMEM) (Corning, New York, NY, Cat #15-018CM) supplemented with 10% fetal bovine serum (FBS) (Hyclone, Logan, UT, Cat #SH30071-03) and 1× Penicillin-Streptonycin-L-Glutamine (Corning, New York, NY, Cat #30-009-CI). Cells were passaged 2 times per week to maintain sub-confluent densities and were used for experiments at passage 5-20. Respiratory syncytial virus recombinant with luciferase (RSV-Luc5) (≥1 ×107 TCID50/ml) was purchased from Microbiologics (Saint Cloud, MN). Viral replication was determined in HEp-2 cells in the following manner.
as §9
The test compounds were spotted to 384-well assay plates (Greiner, Monroe, NC, Cat#781091) at 200 nL per well. HEp-2 cells were harvested and suspended in DMEM (supplemented with 10% FBS and 1× Penicillin-Streptonycin-L-Glutamine) and seeded to the pre-spotted assay plates at 4,000 cells per well in 30 μL. RSV-Luc5 viruses were diluted in DMEM (supplemented with 10% FBS and 1× Penicillin-Streptomycin-L-Glutamine) at 200,000 Infectious Units (IU) per mL and 10 μL per well was added to the assay plates containing cells and compounds, for an MOI=0.5. The assay plates were incubated for 3 days at 37° C. and 5% CO2. At the end of incubation, One-Glo reagent (Promega, Madison, WI, Cat #E6120) was prepared. The assay plates and One-Glo reagent were equilibrated to room temperature for at least 15 minutes. 40 μL per well of One-Glo reagent was added and the plates were incubated at room temp for 15 minutes before reading the luminescence signal on an EnVision multimode plate reader (Perkin Elmer, Waltham, MA). Remdesivir was used as positive control and DMSO was used as negative control. Values were normalized to the positive and negative controls (as 0% and 100% replication, respectively) and data was fitted using non-linear regression analysis by Gilead's dose response tool. The EC50 value for each compound was then determined as the concentration reducing the viral replication by 50%.

`CC(C)C(=O)Nc1ncnn2c([C@@H]3O[C@](C#N)(COC(=O)C(C)C)[C@@H](OC(=O)C(C)C)[C@H]3OC(=O)C(C)C)ccc12` [Compound 21, (2R,3S,4S,5S)-2-cyano-5-(4-isobutyramidopyrrolo[2,1-f][1,2,4]triazin-7-yl)-2-((isobutyryloxy)methyl)tetrahydrofuran-3,4-diyl bis(2-methylpropanoate)]: the half-life at 2 μM is 1 min in data set [1], 5 min in data set [2] and 4 min in data set [3]. Moreover, the EC50 in data set [4] came out at 9.08 µM.
For `CC(=O)Nc1ncnn2c([C@@H]3O[C@](C#N)(COC(C)=O)[C@@H](O)[C@H]3O)ccc12` [Compound 31], the EC50 in data set [4] and in data set [5] was 50 µM throughout.
